In brackets after ≈: the same amount, converted by molar mass.
Legend:
[1] = system: Trichoderma viride; test: Fungicidal activity against Trichoderma viride IAM 5061 incubated for 72 hrs followed by serial sub-cultivation for 72 hrs and measured after 72 hrs by serial dilution method; type: functional
[2] = system: Escherichia coli; test: Bactericidal activity against Escherichia coli ATCC 35210 incubated for 24 hrs followed by serial sub-cultivation and measured after 24 hrs by microdilution method; type: functional
[3] = system: Trichoderma viride; test: Antifungal activity against Trichoderma viride IAM 5061 after 72 hrs by serial dilution method; type: functional; details: IAM 5061, 72 h
[4] = system: Enterobacter cloacae; test: Bactericidal activity against Enterobacter cloacae incubated for 24 hrs followed by serial sub-cultivation and measured after 24 hrs by microdilution method; type: functional
[5] = system: Candida albicans; test: Fungicidal activity against Candida albicans incubated for 72 hrs followed by serial sub-cultivation for 72 hrs and measured after 72 hrs by serial dilution method; type: functional
[6] = system: Staphylococcus aureus; test: Bactericidal activity against Staphylococcus aureus ATCC 6538 incubated for 24 hrs followed by serial sub-cultivation and measured after 24 hrs by microdilution method; type: functional
[7] = system: Penicillium ochrochloron; test: Antifungal activity against Penicillium ochrochloron ATCC 9112 after 72 hrs by serial dilution method; type: functional; details: ATCC 9112, 72 h
[8] = system: Salmonella typhimurium; test: Antibacterial activity against Salmonella typhimurium ATCC 13311 after 24 hrs by microdilution method; type: functional, Salmonella enterica subsp. enterica serovar Typhimurium; details: Salmonella enterica, ATCC 13311, 24 h
[9] = system: Aspergillus fumigatus; test: Antifungal activity against Aspergillus fumigatus after 72 hrs by serial dilution method; type: functional
[10] = system: Bacillus cereus; test: Bactericidal activity against Bacillus cereus incubated for 24 hrs followed by serial sub-cultivation and measured after 24 hrs by microdilution method; type: functional
[11] = system: Listeria monocytogenes; test: Antibacterial activity against Listeria monocytogenes NCTC 7973 after 24 hrs by microdilution method; type: functional; details: NCTC 7973, 24 h
[12] = system: Bacillus cereus; test: Antibacterial activity against Bacillus cereus after 24 hrs by microdilution method; type: functional
[13] = system: Aspergillus versicolor; test: Fungicidal activity against Aspergillus versicolor ATCC 11730 incubated for 72 hrs followed by serial sub-cultivation for 72 hrs and measured after 72 hrs by serial dilution method; type: functional
[14] = system: Salmonella typhimurium; test: Bactericidal activity against Salmonella typhimurium ATCC 13311 incubated for 24 hrs followed by serial sub-cultivation and measured after 24 hrs by microdilution method; type: functional, Salmonella enterica subsp. enterica serovar Typhimurium
[15] = system: Aspergillus ochraceus; test: Fungicidal activity against Aspergillus ochraceus ATCC 12066 incubated for 72 hrs followed by serial sub-cultivation for 72 hrs and measured after 72 hrs by serial dilution method; type: functional
[16] = system: Pseudomonas aeruginosa; test: Bactericidal activity against Pseudomonas aeruginosa ATCC 27853 incubated for 24 hrs followed by serial sub-cultivation and measured after 24 hrs by microdilution method; type: functional
[17] = system: Enterobacter cloacae; test: Antibacterial activity against Enterobacter cloacae after 24 hrs by microdilution method; type: functional
[18] = system: Aspergillus ochraceus; test: Antifungal activity against Aspergillus ochraceus ATCC 12066 after 72 hrs by serial dilution method; type: functional; details: ATCC 12066, 72 h
[19] = system: Aspergillus niger; test: Fungicidal activity against Aspergillus niger ATCC 6275 incubated for 72 hrs followed by serial sub-cultivation for 72 hrs and measured after 72 hrs by serial dilution method; type: functional
[20] = system: Micrococcus flavus; test: Bactericidal activity against Micrococcus flavus ATCC 10240 incubated for 24 hrs followed by serial sub-cultivation and measured after 24 hrs by microdilution method; type: functional
[21] = system: Candida albicans; test: Antifungal activity against Candida albicans after 72 hrs by serial dilution method; type: functional
[22] = system: Talaromyces funiculosus; test: Antifungal activity against Penicillium funiculosum ATCC 36839 after 72 hrs by serial dilution method; type: functional; details: ATCC 36839, 72 h
[23] = system: Aspergillus fumigatus; test: Fungicidal activity against Aspergillus fumigatus incubated for 72 hrs followed by serial sub-cultivation for 72 hrs and measured after 72 hrs by serial dilution method; type: functional
[24] = system: Talaromyces funiculosus; test: Fungicidal activity against Penicillium funiculosum ATCC 36839 incubated for 72 hrs followed by serial sub-cultivation for 72 hrs and measured after 72 hrs by serial dilution method; type: functional
[25] = system: Pseudomonas aeruginosa; test: Antibacterial activity against Pseudomonas aeruginosa ATCC 27853 after 24 hrs by microdilution method; type: functional; details: ATCC 27853, 24 h
[26] = system: Aspergillus niger; test: Antifungal activity against Aspergillus niger ATCC 6275 after 72 hrs by serial dilution method; type: functional; details: ATCC 6275, 72 h
[27] = system: Staphylococcus aureus; test: Antibacterial activity against Staphylococcus aureus ATCC 6538 after 24 hrs by microdilution method; type: functional; details: ATCC 6538, 24 h
[28] = system: Penicillium ochrochloron; test: Fungicidal activity against Penicillium ochrochloron ATCC 9112 incubated for 72 hrs followed by serial sub-cultivation for 72 hrs and measured after 72 hrs by serial dilution method; type: functional
[29] = system: Escherichia coli; test: Antibacterial activity against Escherichia coli ATCC 35210 after 24 hrs by microdilution method; type: functional; details: ATCC 35210, 24 h
[30] = system: Micrococcus flavus; test: Antibacterial activity against Micrococcus flavus ATCC 10240 after 24 hrs by microdilution method; type: functional; details: ATCC 10240, 24 h
[31] = system: Aspergillus versicolor; test: Antifungal activity against Aspergillus versicolor ATCC 11730 after 72 hrs by serial dilution method; type: functional; details: ATCC 11730, 72 h
[32] = system: Listeria monocytogenes; test: Bactericidal activity against Listeria monocytogenes NCTC 7973 incubated for 24 hrs followed by serial sub-cultivation and measured after 24 hrs by microdilution method; type: functional

MIC [3] | MIC [7] | MIC [8] | MIC [9] | MIC [11] | MIC [12] | MIC [17] | MIC [18] | SMILES | MFC99.5 [1] | MBC99.5 [2] | MBC99.5 [4] | MFC99.5 [5] | MBC99.5 [6] | MBC99.5 [10] | MFC99.5 [13] | MBC99.5 [14] | MFC99.5 [15] | MBC99.5 [16] | MFC99.5 [19] | MBC99.5 [20] | further results
25.6 µM (≈ 9.98 µg/mL) | 102 µM (≈ 39.8 µg/mL) | 768 µM (≈ 299 µg/mL) | 205 µM (≈ 79.9 µg/mL) | 589 µM (≈ 230 µg/mL) | 205 µM (≈ 79.9 µg/mL) | 789 µM (≈ 308 µg/mL) | 102 µM (≈ 39.8 µg/mL) | O=C(NN1C(=O)CSC1c1ccc(Cl)cc1)c1nsc2ccccc12 (stereo not drawn) | 5.12 ×10⁻² umol/ml | 76.8 ×10⁻² umol/ml | 115.2 ×10⁻² umol/ml | 20.5 ×10⁻² umol/ml | 38.4 ×10⁻² umol/ml | 38.4 ×10⁻² umol/ml | 20.5 ×10⁻² umol/ml | 115.2 ×10⁻² umol/ml | 20.5 ×10⁻² umol/ml | 76.8 ×10⁻² umol/ml | 20.5 ×10⁻² umol/ml | 76.8 ×10⁻² umol/ml | MIC [21]: 102 µM (≈ 39.8 µg/mL); MIC [22]: 102 µM (≈ 39.8 µg/mL); MFC99.5 [23]: 38.4 ×10⁻² umol/ml; MFC99.5 [24]: 20.5 ×10⁻² umol/ml; MIC [25]: 205 µM (≈ 79.9 µg/mL); MIC [26]: 102 µM (≈ 39.8 µg/mL); MIC [27]: 205 µM (≈ 79.9 µg/mL); MFC99.5 [28]: 20.5 ×10⁻² umol/ml; MIC [29]: 589 µM (≈ 230 µg/mL); MIC [30]: 384 µM (≈ 150 µg/mL); MIC [31]: 102 µM (≈ 39.8 µg/mL); MBC99.5 [32]: 76.8 ×10⁻² umol/ml
138 µM (≈ 56.3 µg/mL) | 368 µM (≈ 150 µg/mL) | 196 µM (≈ 79.9 µg/mL) | 368 µM (≈ 150 µg/mL) | 270 µM (≈ 110 µg/mL) | 196 µM (≈ 79.9 µg/mL) | 368 µM (≈ 150 µg/mL) | 368 µM (≈ 150 µg/mL) | O=C(NN1C(=O)CSC1c1c(F)cccc1Cl)c1nsc2ccccc12 (stereo not drawn) | 18.4 ×10⁻² umol/ml | 36.8 ×10⁻² umol/ml | 73.5 ×10⁻² umol/ml | 85.8 ×10⁻² umol/ml | 36.8 ×10⁻² umol/ml | 36.8 ×10⁻² umol/ml | 73.5 ×10⁻² umol/ml | 36.8 ×10⁻² umol/ml | 73.5 ×10⁻² umol/ml | 36.8 ×10⁻² umol/ml | 73.5 ×10⁻² umol/ml | 36.8 ×10⁻² umol/ml | MIC [21]: 735 µM (≈ 300 µg/mL); MIC [22]: 368 µM (≈ 150 µg/mL); MFC99.5 [23]: 73.5 ×10⁻² umol/ml; MFC99.5 [24]: 73.5 ×10⁻² umol/ml; MIC [25]: 196 µM (≈ 79.9 µg/mL); MIC [26]: 368 µM (≈ 150 µg/mL); MIC [27]: 196 µM (≈ 79.9 µg/mL); MFC99.5 [28]: 85.8 ×10⁻² umol/ml; MIC [29]: 270 µM (≈ 110 µg/mL); MIC [30]: 270 µM (≈ 110 µg/mL); MIC [31]: 184 µM (≈ 75 µg/mL); MBC99.5 [32]: 36.8 ×10⁻² umol/ml
132 µM (≈ 56 µg/mL) | 395 µM (≈ 168 µg/mL) | 395 µM (≈ 168 µg/mL) | 395 µM (≈ 168 µg/mL) | 395 µM (≈ 168 µg/mL) | 395 µM (≈ 168 µg/mL) | 543 µM (≈ 230 µg/mL) | 94.5 µM (≈ 40.1 µg/mL) | O=C(NN1C(=O)CSC1c1c(Cl)cccc1Cl)c1nsc2ccccc12 (stereo not drawn) | 18.9 ×10⁻² umol/ml | 79 ×10⁻² umol/ml | 79 ×10⁻² umol/ml | 79 ×10⁻² umol/ml | 39.5 ×10⁻² umol/ml | 79 ×10⁻² umol/ml | 70.8 ×10⁻² umol/ml | 79 ×10⁻² umol/ml | 18.9 ×10⁻² umol/ml | 39.5 ×10⁻² umol/ml | 79 ×10⁻² umol/ml | 79 ×10⁻² umol/ml | MIC [21]: 395 µM (≈ 168 µg/mL); MIC [22]: 395 µM (≈ 168 µg/mL); MFC99.5 [23]: 79 ×10⁻² umol/ml; MFC99.5 [24]: 79 ×10⁻² umol/ml; MIC [25]: 189 µM (≈ 80.2 µg/mL); MIC [26]: 395 µM (≈ 168 µg/mL); MIC [27]: 189 µM (≈ 80.2 µg/mL); MFC99.5 [28]: 79 ×10⁻² umol/ml; MIC [29]: 543 µM (≈ 230 µg/mL); MIC [30]: 543 µM (≈ 230 µg/mL); MIC [31]: 189 µM (≈ 80.2 µg/mL); MBC99.5 [32]: 79 ×10⁻² umol/ml
50 µM (≈ 20.2 µg/mL) | 74 µM (≈ 29.9 µg/mL) | 100 µM (≈ 40.4 µg/mL) | 100 µM (≈ 40.4 µg/mL) | 198 µM (≈ 80 µg/mL) | 198 µM (≈ 80 µg/mL) | 198 µM (≈ 80 µg/mL) | 74 µM (≈ 29.9 µg/mL) | O=C(Cc1nsc2ccccc12)NN1C(=O)CSC1c1cccc(Cl)c1 (stereo not drawn) | 10 ×10⁻² umol/ml | 37.2 ×10⁻² umol/ml | 37.2 ×10⁻² umol/ml | 19.8 ×10⁻² umol/ml | 37.2 ×10⁻² umol/ml | 37.2 ×10⁻² umol/ml | 19.2 ×10⁻² umol/ml | 37.2 ×10⁻² umol/ml | 10 ×10⁻² umol/ml | 37.2 ×10⁻² umol/ml | 19.2 ×10⁻² umol/ml | 37.2 ×10⁻² umol/ml | MIC [21]: 100 µM (≈ 40.4 µg/mL); MIC [22]: 100 µM (≈ 40.4 µg/mL); MFC99.5 [23]: 37.2 ×10⁻² umol/ml; MFC99.5 [24]: 19.8 ×10⁻² umol/ml; MIC [25]: 198 µM (≈ 80 µg/mL); MIC [26]: 100 µM (≈ 40.4 µg/mL); MIC [27]: 100 µM (≈ 40.4 µg/mL); MFC99.5 [28]: 10 ×10⁻² umol/ml; MIC [29]: 198 µM (≈ 80 µg/mL); MIC [30]: 198 µM (≈ 80 µg/mL); MIC [31]: 100 µM (≈ 40.4 µg/mL); MBC99.5 [32]: 37.2 ×10⁻² umol/ml

— ChEMBL document CHEMBL4257449, “New N-(2-phenyl-4-oxo-1,3-thiazolidin-3-yl)-1,2-benzothiazole-3-carboxamides and acetamides as antimicrobial agents” (2017)
